The values below come from patent US20200361930A1, “BIFUNCTIONAL MOLECULES THAT DEGRADE EGFR” (Hoffmann-La Roche Inc., priority 2018, published 2020).

T1 sequence (P00533 25-1210 T790M/C797S/L858R): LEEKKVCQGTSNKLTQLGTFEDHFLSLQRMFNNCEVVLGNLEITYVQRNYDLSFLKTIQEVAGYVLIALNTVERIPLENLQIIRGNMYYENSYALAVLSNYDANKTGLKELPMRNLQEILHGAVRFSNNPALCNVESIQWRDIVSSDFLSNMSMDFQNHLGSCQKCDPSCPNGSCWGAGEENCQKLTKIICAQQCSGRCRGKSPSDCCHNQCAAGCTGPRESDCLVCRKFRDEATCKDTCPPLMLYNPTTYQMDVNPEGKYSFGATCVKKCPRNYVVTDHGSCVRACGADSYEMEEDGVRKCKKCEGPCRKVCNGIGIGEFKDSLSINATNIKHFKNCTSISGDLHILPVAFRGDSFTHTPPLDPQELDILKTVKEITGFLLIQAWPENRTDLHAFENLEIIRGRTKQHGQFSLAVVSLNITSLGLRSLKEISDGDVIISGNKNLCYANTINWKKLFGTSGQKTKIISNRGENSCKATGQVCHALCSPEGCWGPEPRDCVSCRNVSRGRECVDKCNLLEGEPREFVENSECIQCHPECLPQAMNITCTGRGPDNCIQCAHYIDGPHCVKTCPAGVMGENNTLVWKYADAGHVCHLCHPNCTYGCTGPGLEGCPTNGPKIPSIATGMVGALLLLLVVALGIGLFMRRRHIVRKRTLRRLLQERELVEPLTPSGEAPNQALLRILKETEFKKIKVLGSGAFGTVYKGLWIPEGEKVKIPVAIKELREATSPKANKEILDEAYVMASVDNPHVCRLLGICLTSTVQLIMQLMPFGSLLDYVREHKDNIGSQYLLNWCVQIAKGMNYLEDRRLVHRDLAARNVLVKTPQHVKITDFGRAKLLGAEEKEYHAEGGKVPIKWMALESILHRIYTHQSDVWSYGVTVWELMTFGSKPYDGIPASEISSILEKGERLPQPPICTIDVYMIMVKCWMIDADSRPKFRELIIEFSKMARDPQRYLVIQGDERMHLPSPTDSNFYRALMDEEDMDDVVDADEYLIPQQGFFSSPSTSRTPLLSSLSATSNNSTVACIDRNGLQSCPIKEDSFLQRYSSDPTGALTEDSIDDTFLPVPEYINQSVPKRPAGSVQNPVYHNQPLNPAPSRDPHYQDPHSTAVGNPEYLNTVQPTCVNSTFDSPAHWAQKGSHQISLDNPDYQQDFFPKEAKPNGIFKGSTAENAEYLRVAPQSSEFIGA

The test has as its target T1, EGFR T790M/L858R/C797S (Homo sapiens, UniProt P00533, C797S/L858R/T790M).
T1 construct: expressed in transfected cells; host or cells: BaF3 (Ba/F3) cells, lentivirally transduced with a pCDH vector under the PGK promoter
Nature of the test: EGFR degradation assay (cellular), FRET quantification of total EGFR. It counts as cell-based. Conditions: BaF3 EGFR T790M/L858R/C797S cells, 4 hours incubation, total EGFR FRET signal, top concentration 1 μM; read-out: IC50 value (BaF3 EGFR T790M/L858R/C797S degradation). How it is done: EGFR Degradation Assay (Cellular)
The BaF3 parental line was purchased from DSMZ and grown in RPMI media supplemented with 10% FBS and 10 ng/mL interleukin 3 (IL-3) (Thermo Fisher Scientific). EGFR mutants (T790M/L853R, T790M/L853R/C797S) were cloned into the pCDH lentiviral vector (SystemBio) under the control of a PGK promoter and confirmed by DNA sequencing. The resulting gene expression vector for each mutant was mixed with packaging vectors and cotransfected into 2×10E6 HEK293T cells (ATCC) in 10 mL of DMEM media to generate lentiviral particles according to the manufacturers protocol (Origene).
Three days post-transfection, the viral supernatant was harvested and filtered. In one well of a 12-well plate, 0.5 mL of viral supernatant was added to 2E6 Ba/F3 cells contained in 1.5 mL of RPMI media including 10% FBS, 10 ng/mL IL-3, and 5 μg/mL polybrene (Invitrogen). The plate was centrifuged at 2,000 rpm for 1 hour at room temperature and infected cells were kept in a tissue culture incubator overnight at 37° C. The cells were washed once in fresh BaF3 media and reseeded at 0.5E6 cells/well of a 12-well plate in media supplemented with 0.5 μg/mL puromycin. The cells were maintained in this media for 3 weeks. IL-3-independent, EGFR mutant transformed cells were routinely maintained in RPMI medium supplemented with 10% FBS.
RPMI 1640 no-phenol red medium and fetal bovine serum (FBS) were purchased from Gibco (Grand Island, N.Y., USA). EGFR total kit and EGFR phospho-Y1068 kit were purchased from Cisbio (Bedford, Mass., USA). BaF3 EGFR mutant cell lines (EGFR T790M/L858R/C797S) cell line was generated in house, according to the protocol reported above. Cell culture flasks and 384-well microplates were acquired from VWR (Radnor, Pa., USA).
EGFR degradation was determined based on quantification of FRET signal using EGFR total kit. The FRET signal detected correlates with total EGFR protein level in cells. Briefly, test compounds were added to the 384-well plate from a top concentration of 1 μM with 11 points, half log titration in quadruplicates. Then, BaF3 EGFR mutant cell lines (EGFR T790M/L858R/C797S) were added into 384-well plates at a cell density of 10000 cells per well. The plates were kept at 37° C. with 5% CO2 for 4 hours. After 4-hour incubation, 4× lysis buffer was added to the cells, and then then microplate was agitated on plate shaker at 500 rpm for 30 minutes at room temperature. Next, total EGFR antibody solution was added to the cells and the cells were incubated for another 4 hours at room temperature. Finally, FRET signal was acquired on EnVision™ Multilabel Reader (PerkinElmer, Santa Clara, Calif., USA). The cells treated in the absence of the test compound were the negative control and lysis buffer with antibody solution only were the positive control.
For the molecule `O=C1CCC(N2C(=O)c3cccc(NCCCCCC(=O)N4CCN(Cc5ccc(C#Cc6ccc7c(c6)C(=O)N(C(C(=O)Nc6nccs6)c6ccccc6)C7)cc5)CC4)c3C2=O)C(=O)N1` (racemic) [Example 1, (2RS)-2-[6-[2-[4-[[4-[6-[[2-[(3RS)-2,6-Dioxo-3-piperidyl]-1,3-dioxo-isoindolin-4-yl]amino]hexanoyl]piperazin-1-yl]methyl]phenyl]ethynyl]-1-oxo-isoindolin-2-yl]-2-phenyl-N-thiazol-2-yl-acetamide], the DC50 is 0.04 µM.
With `O=C1CCC(N2C(=O)c3cccc(NCCCC(=O)N4CCC(NC(=O)c5ccc(C#Cc6ccc7c(c6)C(=O)N(C(C(=O)Nc6nccs6)c6ccccc6)C7)cn5)CC4)c3C2=O)C(=O)N1` (racemic) [Example 2, N-[1-[4-[[2-[(3RS)-2,6-Dioxo-3-piperidyl]-1,3-dioxo-isoindolin-4-yl]amino]butanoyl]-4-piperidyl]-5-[2-[3-oxo-2-[(1RS)-2-oxo-1-phenyl-2-(thiazol-2-ylamino)ethyl]isoindolin-5-yl]ethynyl]pyridine-2-carboxamide], the DC50 was 0.021 µM.
In the case of `O=C1CCC(N2C(=O)c3cccc(NCCCC(=O)N4CCN(Cc5ccc(C#Cc6ccc7c(c6)C(=O)N(C(C(=O)Nc6nccs6)c6ccccc6)C7)cc5)CC4)c3C2=O)C(=O)N1` (racemic) [Example 3, (2RS)-2-[6-[2-[4-[[4-[4-[[2-[(3RS)-2,6-Dioxo-3-piperidyl]-1,3-dioxo-isoindolin-4-yl]amino]butanoyl]piperazin-1-yl]methyl]phenyl]ethynyl]-1-oxo-isoindolin-2-yl]-2-phenyl-N-thiazol-2-yl-acetamide], the DC50 turned out to be 0.035 µM.
Turning to `O=C1CCC(N2C(=O)c3cccc(NCCCC(=O)N4CCN(Cc5ccc(C#Cc6ccc7c(c6)C(=O)N(C(C(=O)Nc6nccs6)c6ccccc6)C7)cn5)CC4)c3C2=O)C(=O)N1` (racemic) [Example 4, (2RS)-2-[6-[2-[6-[[4-[4-[[2-[(3RS)-2,6-Dioxo-3-piperidyl]-1,3-dioxo-isoindolin-4-yl]amino]butanoyl]piperazin-1-yl]methyl]-3-pyridyl]ethynyl]-1-oxo-isoindolin-2-yl]-2-phenyl-N-thiazol-2-yl-acetamide], the DC50 stood at 0.014 µM.
With `O=C1CCC(N2C(=O)c3cccc(NCC(=O)N4CCC(NC(=O)c5ccc(C#Cc6ccc7c(c6)C(=O)N(C(C(=O)Nc6nccs6)c6ccccc6)C7)cn5)CC4)c3C2=O)C(=O)N1` (racemic) [Example 5, N-[1-[2-[[2-[(3RS)-2,6-Dioxo-3-piperidyl]-1,3-dioxo-isoindolin-4-yl]amino]acetyl]-4-piperidyl]-5-[2-[3-oxo-2-[(1RS)-2-oxo-1-phenyl-2-(thiazol-2-ylamino)ethyl]isoindolin-5-yl]ethynyl]pyridine-2-carboxamide], the DC50 amounted to 0.018 µM.
For `O=C1CCC(N2C(=O)c3cccc(NCCCCN4CCC(NC(=O)c5ccc(C#Cc6ccc7c(c6)C(=O)N(C(C(=O)Nc6nccs6)c6ccccc6)C7)cn5)CC4)c3C2=O)C(=O)N1` (racemic) [Example 6, N-[1-[4-[[2-[(3RS)-2,6-Dioxo-3-piperidyl]-1,3-dioxo-isoindolin-4-yl]amino]butyl]-4-piperidyl]-5-[2-[3-oxo-2-[(1RS)-2-oxo-1-phenyl-2-(thiazol-2-ylamino)ethyl]isoindolin-5-yl]ethynyl]pyridine-2-carboxamide], the DC50 stood at 0.021 µM.
For `O=C1CCC(N2C(=O)c3cccc(NCCCC(=O)N4CCC(NC(=O)c5ccc(C#Cc6ccc7c(c6)C(=O)N(C(C(=O)Nc6nccs6)c6cc(F)ccc6O)C7)cn5)CC4)c3C2=O)C(=O)N1` (racemic) [Example 7, N-[1-[4-[[2-[(3RS)-2,6-Dioxo-3-piperidyl]-1,3-dioxo-isoindolin-4-yl]amino]butanoyl]-4-piperidyl]-5-[2-[2-[(1RS)-1-(5-fluoro-2-hydroxy-phenyl)-2-oxo-2-(thiazol-2-ylamino)ethyl]-3-oxo-isoindolin-5-yl]ethynyl]pyridine-2-carboxamide], the DC50 worked out at 0.012 µM.
With `O=C1CCC(N2C(=O)c3cccc(NCCCCN4CCC(NC(=O)c5ncc(C#Cc6ccc7c(c6)C(=O)N(C(C(=O)Nc6nccs6)c6ccccc6)C7)cc5F)CC4)c3C2=O)C(=O)N1` (racemic) [Example 8, N-[1-[4-[[2-[(3RS)-2,6-Dioxo-3-piperidyl]-1,3-dioxo-isoindolin-4-yl]amino]butyl]-4-piperidyl]-3-fluoro-5-[2-[3-oxo-2-[(1RS)-2-oxo-1-phenyl-2-(thiazol-2-ylamino)ethyl]isoindolin-5-yl]ethynyl]pyridine-2-carboxamide], the DC50 came out at 0.02 µM.
On to `O=C1CCC(N2C(=O)c3cccc(NCCCCN4CCC(NC(=O)c5ccc(C#Cc6ccc7c(c6)C(=O)N(C(C(=O)Nc6ccccn6)c6ccccc6)C7)cn5)CC4)c3C2=O)C(=O)N1` (racemic) [Example 9, N-[1-[4-[[2-[(3RS)-2,6-Dioxo-3-piperidyl]-1,3-dioxo-isoindolin-4-yl]amino]butyl]-4-piperidyl]-5-[2-[3-oxo-2-[(1RS)-2-oxo-1-phenyl-2-(2-pyridylamino)ethyl]isoindolin-5-yl]ethynyl]pyridine-2-carboxamide], for which the DC50 is 0.052 µM.
Under `O=C1CCC(N2C(=O)c3cccc(NCCCCN4CCC(NC(=O)c5ccc(C#Cc6ccc7c(c6)C(=O)N(C(C(=O)Nc6nccs6)c6cc(F)ccc6O)C7)cn5)CC4)c3C2=O)C(=O)N1` (racemic) [Example 10, N-[1-[4-[[2-[(3RS)-2,6-Dioxo-3-piperidyl]-1,3-dioxo-isoindolin-4-yl]amino]butyl]-4-piperidyl]-5-[2-[2-[(1RS)-1-(5-fluoro-2-hydroxy-phenyl)-2-oxo-2-(thiazol-2-ylamino)ethyl]-3-oxo-isoindolin-5-yl]ethynyl]pyridine-2-carboxamide] stands 0.013 µM; under `O=C1CCC(N2C(=O)c3ccc(N4CCC(CN5CCC(NC(=O)c6ccc(C#Cc7ccc8c(c7)C(=O)N(C(C(=O)Nc7ccccn7)c7ccccc7)C8)cn6)CC5)CC4)cc3C2=O)C(=O)N1` (racemic) [Example 11, N-[1-[[1-[2-[(3RS)-2,6-Dioxo-3-piperidyl]-1,3-dioxo-isoindolin-5-yl]-4-piperidyl]methyl]-4-piperidyl]-5-[2-[3-oxo-2-[(1RS)-2-oxo-1-phenyl-2-(2-pyridylamino)ethyl]isoindolin-5-yl]ethynyl]pyridine-2-carboxamide], 0.048 µM.
Consider `O=C1CCC(N2C(=O)c3cccc(N4CCC(CC(=O)N5CCN(Cc6ccc(C#Cc7ccc8c(c7)C(=O)N(C(C(=O)Nc7ccccn7)c7ccccc7)C8)cn6)CC5)CC4)c3C2=O)C(=O)N1` (racemic) [Example 12, (2RS)-2-[6-[2-[6-[[4-[2-[1-[2-[(3RS)-2,6-Dioxo-3-piperidyl]-1,3-dioxo-isoindolin-4-yl]-4-piperidyl]acetyl]piperazin-1-yl]methyl]-3-pyridyl]ethynyl]-1-oxo-isoindolin-2-yl]-2-phenyl-N-(2-pyridyl)acetamide], for which the DC50 was determined as 0.038 µM.
